The subject of one assay is IgG. In words: Determination of Igs produced in in vitro culture: inhibition of IgG secreted by spleen cells (adoptive secondary immune response to DNP-As), ELISA. The format is cell-based, BALB/c mice. To be noted: 4 days culture; for Inhibition % of IgG / inhibition at 1 µg/mL: 1.0 μg/ml; for inhibition at 2.5 µg/mL: 2.5 μg/ml; for inhibition at 0.25 µg/mL: 0.25 μg/ml; for inhibition at 5 µg/mL: 5.0 μg/ml; for inhibition at 40 µg/mL: 40.0 μg/ml. As for the experimental part: (§1) Determination of Igs produced in in vitro culture
(§2) BALB/c mice were immunized intraperitoneally with 5 μg of DNP-As adsorbed in 4 mg aluminum hydroxide gel. 4 weeks after the immunization, the spleens were excised from the mice and 5×10^7 spleen cells were transferred intravenously into the recipient mice which had been exposed to 600 rad of X-ray irradiation. Immediately after cell transfer, the recipients were then immunized intraperitoneally with 5 μg of DNP-As adsorbed in 4 mg aluminum hydroxide gel to induce adoptive secondary immune response. Further 4 weeks after the immunization of recipients, the spleens were excised from them and the spleen cell suspensions 5×10^6 cells/ml were cultured with or without a compound to be tested in 96-well micro plates at 37° C. for 4 days. IgE and IgG secreted into the culture supernatant was each determined correspondingly by ELISA and the inhibitory effect was calculated according to the following equation. [formula]
(ELISA stands for enzyme-linked immunosorbent assay.)

In a further assay the test system is IgE. In words: Determination of Igs produced in in vitro culture: inhibition of IgE secreted by spleen cells (adoptive secondary immune response to DNP-As), ELISA. Format: cell-based, BALB/c mice. The following applies: 4 days culture; for inhibition at 1 µg/mL / Inhibition % of IgE: 1.0 μg/ml; for inhibition at 2.5 µg/mL: 2.5 μg/ml; for inhibition at 0.25 µg/mL: 0.25 μg/ml; for inhibition at 5 µg/mL: 5.0 μg/ml; for inhibition at 40 µg/mL: 40.0 μg/ml. As for the experimental part:
as §1, §2

Each structure is given as a SMILES string.

Regarding `CSc1c(C#N)c(=O)n2cccc(C)c2c1C(=O)N1CCC(c2ccccc2)CC1` (single isomer, unassigned) [S-81A, 3-Cyano-9-methyl-2methylthio-1-(4-phenylpiperidinocarbonyl)-4H-quinolizin-4-one], the “Inhibition % of IgG” value in the assay with IgG worked out at 17%. Moreover, the inhibition (as a rule, how much of the control response was suppressed) at 1 µg/mL in the assay with IgE (Mus musculus, 96 h) came out at 46%.

On to `CSc1c(C#N)c(=O)n2cccc(C)c2c1C(=O)N1CCC(c2ccccc2)CC1` (single isomer, unassigned) [S-81B, 3-Cyano-9-methyl-2methylthio-1-(4-phenylpiperidinocarbonyl)-4H-quinolizin-4-one], for which, in the assay with IgG, the “Inhibition % of IgG” value amounted to 4%. For the same molecule, in the assay with IgE, the “Inhibition % of IgE” value is 50%.

Turning to `CSc1c(C#N)c(=O)n2ccccc2c1C(=O)N1CCC(Cc2ccccc2)CC1` (single isomer, unassigned) [S-82A, 1-(4-Benzylpiperidinocarbonyl)-3-cyano-2-methylthio-4H-quinolizin-4-one], the inhibition at 1 µg/mL was determined as 18% in the assay with IgG (Mus musculus, 96 h) and 43% in the assay with IgE (Mus musculus, 96 h).

With `CSc1c(C#N)c(=O)n2ccccc2c1C(=O)N1CCC(Cc2ccccc2)CC1` (single isomer, unassigned) [S-82B, 1-(4-Benzylpiperidinocarbonyl)-3-cyano-2-methylthio-4H-quinolizin-4-one], the inhibition at 2.5 µg/mL in the assay with IgG (Mus musculus, 96 h) turned out to be 8%; in the assay with IgE (Mus musculus, 96 h), 63%.

As to `N#Cc1c(SCc2ccccc2)c(C(=O)N2CCC(c3ccccc3)CC2)c2ccccn2c1=O` (single isomer, unassigned) [S-83A, 2-Benzylthio-3-cyano-1-(4-phenylpiperidinocarbonyl)-4H-quinolizin-4-one], the inhibition at 1 µg/mL came out at 23% in the assay on IgG (Mus musculus, 96 h) and 67% with IgE (Mus musculus, 96 h).

For the molecule `N#Cc1c(SCc2ccccc2)c(C(=O)N2CCC(c3ccccc3)CC2)c2ccccn2c1=O` (single isomer, unassigned) [S-83B, 2-Benzylthio-3-cyano-1-(4-phenylpiperidinocarbonyl)-4H-quinolizin-4-one], the inhibition at 0.25 µg/mL in the assay with IgG (Mus musculus, 96 h) came to 10%; in the assay on IgE (Mus musculus, 96 h), 41%.

In the case of `N#Cc1c(SCc2ccccc2)c(C(=O)N2CCC(Cc3ccccc3)CC2)c2ccccn2c1=O` (single isomer, unassigned) [S-84A, 1-(4-Benzylpiperidinocarbonyl)-2-benzylthio-3-cyano-4H-quinolizin-4-one], the inhibition at 1 µg/mL in the assay with IgG (Mus musculus, 96 h) was found to be 22%; with IgE (Mus musculus, 96 h) it was 58%.

Consider `N#Cc1c(SCc2ccccc2)c(C(=O)N2CCC(Cc3ccccc3)CC2)c2ccccn2c1=O` (single isomer, unassigned) [S-84B, 1-(4-Benzylpiperidinocarbonyl)-2-benzylthio-3-cyano-4H-quinolizin-4-one], for which the “Inhibition % of IgG” value in the assay on IgG is listed as 32%. The “Inhibition % of IgE” value with IgE came to 58%.

For `CSc1c(C#N)c(=O)n2ccccc2c1C(=O)N1CCC2CCCCC21` (single isomer, unassigned) [S-85A, 3-Cyano-2-methylthio-1-(perhydroindol-1-yl-carbonyl)-4H-quinolizin-4-one], the inhibition at 5 µg/mL in the assay with IgG (Mus musculus, 96 h) amounted to 23%; in the assay on IgE (Mus musculus, 96 h) it was 43%.

In the case of `CSc1c(C#N)c(=O)n2ccccc2c1C(=O)N1CCC2CCCCC21` (single isomer, unassigned) [S-85B, 3-Cyano-2-methylthio-1-(perhydroindol-1-yl-carbonyl)-4H-quinolizin-4-one], the inhibition at 2.5 µg/mL in the assay with IgG (Mus musculus, 96 h) was 19%; in the assay on IgE (Mus musculus, 96 h), 39%.

Take `CSc1c(C#N)c(=O)n2ccccc2c1C(=O)OCC1CCCCC1` [S-1, Cyclohexylmethyl 3-cyano-2-methylthio-4H-quinolizin-4-one-1-carboxylate]: the inhibition at 5 µg/mL is 22% in the assay with IgG (Mus musculus, 96 h) and 65% in the assay on IgE (Mus musculus, 96 h).

Regarding `CSc1c(C#N)c(=O)n2ccccc2c1C(=O)OCC1CC1` [S-2, Cyclopropylmethyl 3-cyano-2-methylthio-4H-quinolizin-4-one-1-carboxylate], the inhibition at 5 µg/mL with IgG (Mus musculus, 96 h) was found to be 27%; in the assay on IgE (Mus musculus, 96 h) it was 51%.

With `CSc1c(C#N)c(=O)n2ccccc2c1C(=O)OCCCC1CCCCC1` [S-3, 3'-Cyclohexylpropyl 3-cyano-2-methylthio-4H-quinolizin-4-one-1-carboxylate], the inhibition at 1 µg/mL amounted to 35% in the assay with IgG (Mus musculus, 96 h) and 79% with IgE (Mus musculus, 96 h).

For `CSc1c(C#N)c(=O)n2ccccc2c1C(=O)OCC(Cl)(Cl)Cl` [S-4, 2',2',2'-Trichloroethyl 3-cyano-2-methylthio-4H-quinolizin-4-one-1-carboxylate], the inhibition at 1 µg/mL in the assay with IgG (Mus musculus, 96 h) amounted to 39%; with IgE (Mus musculus, 96 h), 68%.

Turning to `C=CCOC(=O)c1c(SC)c(C#N)c(=O)n2ccccc12` [S-5, 2'-Propenyl 3-cyano-2-methylthio-4H-quinolizin-4-one-1-carboxylate], the inhibition at 20 µg/mL with IgG (Mus musculus, 96 h, 20.0 μg/ml) came to 47%; in the assay with IgE (Mus musculus, 96 h, 20.0 μg/ml) it was 77%.

With `C#CCOC(=O)c1c(SC)c(C#N)c(=O)n2ccccc12` [S-6, 2'-Propynl 3-cyano-2-methylthio-4H-quinolizin-4-one-1-carboxylate], the inhibition at 10 µg/mL with IgG (Mus musculus, 96 h, 10.0 μg/ml) came out at 35%; in the assay on IgE (Mus musculus, 96 h, 10.0 μg/ml) it was 63%.

With `CCCOC(=O)c1c(SC)c(C#N)c(=O)n2ccccc12` [S-7, Propyl 3-cyano-2-methylthio-4H-quinolizin-4-one-1-carboxylate], the inhibition at 40 µg/mL in the assay with IgG (Mus musculus, 96 h) stood at 24%; with IgE (Mus musculus, 96 h) it was 52%.

For the molecule `CSc1c(C#N)c(=O)n2ccccc2c1C(=O)OC(C)C` [S-8, Isopropyl 3-cyano-2-methylthio-4H-quinolizin-4-one-1-carboxylate], the inhibition at 2.5 µg/mL with IgG (Mus musculus, 96 h) was found to be 18%; with IgE (Mus musculus, 96 h), 36%.

`CCCCOC(=O)c1c(SC)c(C#N)c(=O)n2ccccc12` [S-9, Butyl 3-cyano-2-methylthio-4H-quinolizin-4-one-1-carboxylate]: the inhibition at 2.5 µg/mL turned out to be 17% in the assay with IgG (Mus musculus, 96 h) and 54% with IgE (Mus musculus, 96 h).

`CCC(C)OC(=O)c1c(SC)c(C#N)c(=O)n2ccccc12` (stereo not shown) [S-10, 1'-Methylpropyl 3-cyano-2-methylthio-4H-quinolizin-4-one-1-carboxylate]: the inhibition at 2.5 µg/mL in the assay on IgG (Mus musculus, 96 h) turned out to be 27%; in the assay on IgE (Mus musculus, 96 h), 48%.

As to `CSc1c(C#N)c(=O)n2ccccc2c1C(=O)OCCC(C)C` [S-11, Isopentyl 3-cyano-2-methylthio-4H-quinolizin-4-one-1-carboxylate], the inhibition at 5 µg/mL was 30% in the assay with IgG (Mus musculus, 96 h) and 66% with IgE (Mus musculus, 96 h).

As for `CSc1c(C#N)c(=O)n2ccccc2c1C(=O)OC1CCCC1` [S-12, Cyclopentyl 3-cyano-2-methylthio-4H-quinolizin-4-one-1-carboxylate], the inhibition at 5 µg/mL turned out to be 32% in the assay with IgG (Mus musculus, 96 h) and 65% in the assay on IgE (Mus musculus, 96 h).

As to `CSc1c(C#N)c(=O)n2ccccc2c1C(=O)OC1CCC1` [S-13, Cyclobutyl 3-cyano-2-methylthio-4H-quinolizin-4-one-1-carboxylate], the inhibition at 5 µg/mL in the assay with IgG (Mus musculus, 96 h) worked out at 9%; with IgE (Mus musculus, 96 h), 67%.

Turning to `CSc1c(C#N)c(=O)n2ccccc2c1C(=O)OC1CCCCC1` [S-14, Cyclohexyl 3-cyano-2-methylthio-4H-quinolizin-4-one-1-carboxylate], the inhibition at 1 µg/mL was 39% in the assay with IgG (Mus musculus, 96 h) and 69% in the assay on IgE (Mus musculus, 96 h).

Regarding `CSc1c(C#N)c(=O)n2ccccc2c1C(=O)OC1C=CCCC1` (stereo not shown) [S-15, 2'-Cyclohexenyl 3-cyano-2-methylthio-4H-quinolizin-4-one-1-carboxylate], the inhibition at 40 µg/mL in the assay on IgG (Mus musculus, 96 h) was 21%; in the assay on IgE (Mus musculus, 96 h) it was 62%.

As to `CSc1c(C#N)c(=O)n2ccccc2c1C(=O)O[C@H]1CC[C@H](O)CC1` [S-16, trans-4'-Hydroxycyclohexyl 3-cyano-2-methylthio-4H-quinolizin-4-one-1-carboxylate], the inhibition at 5 µg/mL in the assay with IgG (Mus musculus, 96 h) is 14%; in the assay on IgE (Mus musculus, 96 h), 52%.

`CSc1c(C#N)c(=O)n2ccccc2c1C(=O)OC1CCCCC1C` (stereo not shown) [S-17, 2'-Methylcyclohexyl 3-cyano-2-methylthio-4H-quinolizin-4-one-1-carboxylate]: the inhibition at 0.25 µg/mL with IgG (Mus musculus, 96 h) worked out at 7%; in the assay on IgE (Mus musculus, 96 h), 43%.

On to `CSc1c(C#N)c(=O)n2ccc(C)cc2c1C(=O)OC1CCCCC1` [S-18, Cyclohexyl 3-cyano-8-methyl-2-methylthio-4H-quinolizin-4-one-1-carboxylate], for which the inhibition at 2.5 µg/mL in the assay with IgG (Mus musculus, 96 h) was 34%; in the assay with IgE (Mus musculus, 96 h), 54%.

For `CSc1c(C#N)c(=O)n2ccccc2c1C(=O)OC1CCCCCC1` [S-19, Cycloheptyl 3-cyano-2-methylthio-4H-quinolizin-4-one-1-carboxylate], the inhibition at 5 µg/mL with IgG (Mus musculus, 96 h) was 27%; in the assay on IgE (Mus musculus, 96 h), 71%.

Regarding `CSc1c(C#N)c(=O)n2ccccc2c1C(=O)OC1CCCCCCC1` [S-20, Cyclooctyl 3-cyano-2-methylthio-4H-quinolizin-4-one-1-carboxylate], the inhibition at 5 µg/mL in the assay on IgG (Mus musculus, 96 h) stood at 52%; with IgE (Mus musculus, 96 h) it was 84%.

As for `CSc1c(C#N)c(=O)n2ccccc2c1C(=O)OC1C2CC3CC(C2)CC1C3` (stereo not shown) [S-21, 2'-Adamantyl 3-cyano-2-methylthio-4H-quinolizin-4-one-1-carboxylate], the inhibition at 5 µg/mL in the assay with IgG (Mus musculus, 96 h) turned out to be 47%; in the assay with IgE (Mus musculus, 96 h), 70%.

With `CSc1c(C#N)c(=O)n2ccccc2c1C(=O)OC1CCCc2ccccc21` (stereo not shown) [S-22, 1',2',3',4'-Tetrahydro-1'-naphthyl 3-cyano-2-methylthio-4H-quinolizin-4-one-1-carboxylate], the inhibition at 40 µg/mL with IgG (Mus musculus, 96 h) is 42%; in the assay on IgE (Mus musculus, 96 h), 82%.

The values above are taken from US4877795A, “4H-quinolizin-4-one compounds useful for the treatment of allergic bronchial asthma, allergic rhinitis atropic dermatitis and the like” (Kissei Pharmaceutical Co., Ltd., priority 1987, dated 1989).
